The structures appear in SMILES notation.

The results in this text go back to patent publication US20260356819A1, “OXOISOINDOLINYL-SUBSTITUTED […] DERIVATIVE AND USE THEREOF” (GLUETACS THERAPEUTICS (SHANGHAI) CO., LTD., priority 2023, published 2026).

Holding throughout (type): cell-based
What all share (conditions): compounds at 50 nM and 500 nM

The target of one assay is T1, WEE1 (Homo sapiens, UniProt P30291+Q96SW2).
T1 construct: The supernatant was aspirated as the extracted total cell protein; endogenous in cells; host or cells: human peripheral blood mononuclear cells (hPBMCs)
In words: Western blot degradation of WEE1 in hPBMCs (24 h). In a few lines: (§1)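 Immunoblot densitometry quantifies target loss in hPBMCs after a 24 h compound exposure (50 nM, 500 nM). Percent remaining is normalised band intensity; DC50 is the concentration giving half the DMSO-control band grayscale.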

Another assay deals with T2, IKZF1 (Homo sapiens, UniProt Q13422+Q96SW2).
T2 construct: The supernatant was aspirated as the extracted total cell protein; endogenous in cells; host or cells: human peripheral blood mononuclear cells (hPBMCs)
Briefly: Western blot degradation of IKZF1 in hPBMCs (24 h). In a few lines:
as §1

For the next assay, the target named is T3, IKZF2 (Homo sapiens, UniProt Q96SW2+Q9UKS7).
T3 construct: The supernatant was aspirated as the extracted total cell protein; endogenous in cells; host or cells: human peripheral blood mononuclear cells (hPBMCs)
In words: Western blot degradation of IKZF2 in hPBMCs (24 h). The method, boiled down:
as §1

For a further assay, the target named is T4, IKZF3 (Homo sapiens, UniProt Q96SW2+Q9UKT9).
T4 construct: The supernatant was aspirated as the extracted total cell protein; endogenous in cells; host or cells: human peripheral blood mononuclear cells (hPBMCs)
In words: Western blot degradation of IKZF3 in hPBMCs (24 h). The method, boiled down:
as §1
For orientation: In western blotting, separated proteins are transferred to a membrane and probed.

Another assay concerns the target T5, CK1α (Homo sapiens, UniProt P48729+Q96SW2).
T5 construct: The supernatant was aspirated as the extracted total cell protein; endogenous in cells; host or cells: human peripheral blood mononuclear cells (hPBMCs)
Briefly: Western blot degradation of CK1α in hPBMCs (24 h). In a few lines: as §1

A further assay addresses T6, GSPT1 (Homo sapiens, UniProt P15170+Q96SW2).
T6 construct: The supernatant was aspirated as the extracted total cell protein; endogenous in cells; host or cells: human peripheral blood mononuclear cells (hPBMCs)
Briefly: Western blot degradation of GSPT1 in hPBMCs (24 h). The method, boiled down: as §1

T2 sequence (Q13422 whole entry): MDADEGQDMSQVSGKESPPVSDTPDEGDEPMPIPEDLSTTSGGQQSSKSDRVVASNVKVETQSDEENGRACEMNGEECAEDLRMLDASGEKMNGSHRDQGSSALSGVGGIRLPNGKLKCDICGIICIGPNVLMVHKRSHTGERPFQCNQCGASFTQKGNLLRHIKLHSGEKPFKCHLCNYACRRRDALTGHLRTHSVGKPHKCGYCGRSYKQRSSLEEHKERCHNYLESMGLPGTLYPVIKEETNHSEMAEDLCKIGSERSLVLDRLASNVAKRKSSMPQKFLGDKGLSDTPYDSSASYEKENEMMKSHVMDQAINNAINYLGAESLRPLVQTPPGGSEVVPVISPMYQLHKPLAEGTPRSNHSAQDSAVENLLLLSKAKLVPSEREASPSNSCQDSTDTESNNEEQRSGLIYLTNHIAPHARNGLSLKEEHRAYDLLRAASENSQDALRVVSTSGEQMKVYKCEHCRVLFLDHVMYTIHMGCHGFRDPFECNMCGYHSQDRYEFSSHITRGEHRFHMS
T2 sequence (Q96SW2 whole entry): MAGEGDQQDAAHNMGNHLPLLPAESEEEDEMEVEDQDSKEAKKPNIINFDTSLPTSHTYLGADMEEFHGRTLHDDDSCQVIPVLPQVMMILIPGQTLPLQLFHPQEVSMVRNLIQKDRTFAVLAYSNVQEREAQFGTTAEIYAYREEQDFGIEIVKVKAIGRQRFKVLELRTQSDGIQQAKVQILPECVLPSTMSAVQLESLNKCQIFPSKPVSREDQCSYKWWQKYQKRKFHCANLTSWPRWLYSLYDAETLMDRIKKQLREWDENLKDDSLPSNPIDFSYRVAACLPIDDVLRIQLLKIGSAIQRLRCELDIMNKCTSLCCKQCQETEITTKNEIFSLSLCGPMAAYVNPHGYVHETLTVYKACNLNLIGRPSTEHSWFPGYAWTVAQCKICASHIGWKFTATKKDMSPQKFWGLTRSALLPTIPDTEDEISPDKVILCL
T2 sequence (Q16531 whole entry partner): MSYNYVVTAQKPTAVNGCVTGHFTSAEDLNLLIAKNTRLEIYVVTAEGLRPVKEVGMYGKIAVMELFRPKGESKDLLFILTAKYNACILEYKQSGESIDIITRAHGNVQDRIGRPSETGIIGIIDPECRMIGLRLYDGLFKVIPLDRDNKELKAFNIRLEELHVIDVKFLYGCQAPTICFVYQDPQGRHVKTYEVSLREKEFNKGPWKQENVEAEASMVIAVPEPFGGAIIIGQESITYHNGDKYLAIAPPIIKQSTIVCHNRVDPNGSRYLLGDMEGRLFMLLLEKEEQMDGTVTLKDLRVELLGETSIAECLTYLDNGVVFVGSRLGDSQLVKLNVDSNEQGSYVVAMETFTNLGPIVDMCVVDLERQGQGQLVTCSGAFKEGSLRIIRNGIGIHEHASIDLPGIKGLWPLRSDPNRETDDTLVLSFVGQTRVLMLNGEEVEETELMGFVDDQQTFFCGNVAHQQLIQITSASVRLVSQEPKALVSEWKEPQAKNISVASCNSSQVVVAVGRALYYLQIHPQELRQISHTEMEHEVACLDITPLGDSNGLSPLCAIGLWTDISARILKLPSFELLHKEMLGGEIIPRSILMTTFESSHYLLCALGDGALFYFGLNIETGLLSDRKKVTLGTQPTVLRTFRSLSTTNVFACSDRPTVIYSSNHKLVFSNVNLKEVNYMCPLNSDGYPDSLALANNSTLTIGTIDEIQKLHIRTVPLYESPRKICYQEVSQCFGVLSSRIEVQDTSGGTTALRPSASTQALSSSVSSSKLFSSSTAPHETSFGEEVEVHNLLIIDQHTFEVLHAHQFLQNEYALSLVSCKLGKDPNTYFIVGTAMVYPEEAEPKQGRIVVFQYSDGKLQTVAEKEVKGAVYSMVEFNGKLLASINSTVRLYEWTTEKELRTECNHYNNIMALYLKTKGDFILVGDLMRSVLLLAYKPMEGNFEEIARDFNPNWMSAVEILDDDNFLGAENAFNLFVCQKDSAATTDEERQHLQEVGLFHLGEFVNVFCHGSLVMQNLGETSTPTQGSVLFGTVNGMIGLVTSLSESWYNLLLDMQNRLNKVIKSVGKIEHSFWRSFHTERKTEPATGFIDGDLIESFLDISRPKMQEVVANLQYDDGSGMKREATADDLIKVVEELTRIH
T6 sequence (P15170 whole entry): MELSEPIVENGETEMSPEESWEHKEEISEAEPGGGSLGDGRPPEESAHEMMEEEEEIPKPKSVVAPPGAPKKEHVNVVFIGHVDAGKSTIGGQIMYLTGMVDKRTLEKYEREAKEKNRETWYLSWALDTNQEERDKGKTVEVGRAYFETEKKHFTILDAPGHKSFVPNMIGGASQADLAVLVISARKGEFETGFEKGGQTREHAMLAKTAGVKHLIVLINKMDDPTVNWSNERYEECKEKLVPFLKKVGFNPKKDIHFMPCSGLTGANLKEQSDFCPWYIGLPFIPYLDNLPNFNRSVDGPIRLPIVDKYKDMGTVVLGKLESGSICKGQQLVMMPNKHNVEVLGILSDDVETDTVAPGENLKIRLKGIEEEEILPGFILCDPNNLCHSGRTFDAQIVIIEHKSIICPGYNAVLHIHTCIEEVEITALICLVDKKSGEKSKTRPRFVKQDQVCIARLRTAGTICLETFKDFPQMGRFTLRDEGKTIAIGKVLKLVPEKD
T6 sequence (Q96SW2 whole entry): as the sequence (Q96SW2 whole entry) above
T6 sequence (Q16531 whole entry partner): as the sequence (Q16531 whole entry partner) above
T1 sequence (P30291 whole entry): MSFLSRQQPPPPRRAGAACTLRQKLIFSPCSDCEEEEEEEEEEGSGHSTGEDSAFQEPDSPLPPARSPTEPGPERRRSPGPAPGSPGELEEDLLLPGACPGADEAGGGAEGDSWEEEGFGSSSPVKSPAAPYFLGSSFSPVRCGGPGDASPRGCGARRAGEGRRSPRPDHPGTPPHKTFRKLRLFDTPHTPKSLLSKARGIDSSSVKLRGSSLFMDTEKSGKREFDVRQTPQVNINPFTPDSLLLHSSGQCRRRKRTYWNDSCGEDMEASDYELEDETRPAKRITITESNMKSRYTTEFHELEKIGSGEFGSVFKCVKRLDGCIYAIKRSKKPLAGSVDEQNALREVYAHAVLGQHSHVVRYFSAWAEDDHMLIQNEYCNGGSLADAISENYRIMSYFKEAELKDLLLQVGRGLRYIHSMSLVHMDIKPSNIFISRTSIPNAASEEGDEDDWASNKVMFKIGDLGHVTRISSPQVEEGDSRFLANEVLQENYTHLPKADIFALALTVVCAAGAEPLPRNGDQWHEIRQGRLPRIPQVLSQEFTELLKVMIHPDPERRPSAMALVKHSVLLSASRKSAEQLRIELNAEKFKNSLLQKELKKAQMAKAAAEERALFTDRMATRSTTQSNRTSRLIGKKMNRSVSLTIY
T1 sequence (Q96SW2 whole entry): as the sequence (Q96SW2 whole entry) above
T1 sequence (Q16531 whole entry partner): as the sequence (Q16531 whole entry partner) above
T3 sequence (Q9UKS7 whole entry): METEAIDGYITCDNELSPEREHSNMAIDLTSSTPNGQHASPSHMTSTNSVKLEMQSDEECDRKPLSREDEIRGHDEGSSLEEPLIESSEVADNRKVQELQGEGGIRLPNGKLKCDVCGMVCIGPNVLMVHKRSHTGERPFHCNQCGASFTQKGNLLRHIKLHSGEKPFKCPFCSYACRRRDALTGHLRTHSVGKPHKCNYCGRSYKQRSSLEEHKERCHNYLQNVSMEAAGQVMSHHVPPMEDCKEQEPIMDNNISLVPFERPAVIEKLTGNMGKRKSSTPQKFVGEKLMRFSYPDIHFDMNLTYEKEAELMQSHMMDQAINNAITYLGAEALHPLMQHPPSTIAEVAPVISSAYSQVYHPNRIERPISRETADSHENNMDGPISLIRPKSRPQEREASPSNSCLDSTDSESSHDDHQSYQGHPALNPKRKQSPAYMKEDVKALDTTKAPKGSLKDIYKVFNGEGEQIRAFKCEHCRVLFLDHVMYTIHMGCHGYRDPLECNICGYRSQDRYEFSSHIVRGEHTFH
T3 sequence (Q96SW2 whole entry): as the sequence (Q96SW2 whole entry) above
T3 sequence (Q16531 whole entry partner): as the sequence (Q16531 whole entry partner) above
T5 sequence (P48729 whole entry): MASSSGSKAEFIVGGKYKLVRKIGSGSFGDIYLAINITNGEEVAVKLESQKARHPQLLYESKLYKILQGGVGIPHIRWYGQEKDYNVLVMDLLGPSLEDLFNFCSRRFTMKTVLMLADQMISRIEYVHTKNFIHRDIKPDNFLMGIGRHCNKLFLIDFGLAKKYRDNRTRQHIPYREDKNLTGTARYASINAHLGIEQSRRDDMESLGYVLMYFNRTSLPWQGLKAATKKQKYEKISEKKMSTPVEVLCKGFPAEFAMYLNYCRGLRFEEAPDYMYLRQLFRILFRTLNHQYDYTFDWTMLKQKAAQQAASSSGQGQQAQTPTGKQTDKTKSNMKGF
T5 sequence (Q96SW2 whole entry): as the sequence (Q96SW2 whole entry) above
T5 sequence (Q16531 whole entry partner): as the sequence (Q16531 whole entry partner) above

Regarding `CC1(C)CC(c2ccc(Cl)cc2)=C(CN2CCN(Cc3ccc4c(c3)C(=O)N(N3CCC(=O)NC3=O)C4=O)CC2)CO1` [GT-07304, 5-((4-((4-(4-chlorophenyl)-6,6-dimethyl-5,6-dihydro-2H-pyran-3-yl)methyl)piperazin-1-yl)methyl)-2-(2,4-dioxotetrahydropyrimidin-1(2H)-yl)isoindoline-1,3-dione], the “WEE1 substrate protein remaining %” value on WEE1 is “B (80%< substrate protein remaining % ≤100%)”. The “IKZF1 substrate protein remaining %” value at IKZF1 is listed as “B (80%< substrate protein remaining % ≤100%)”. Further, the “IKZF2 substrate protein remaining %” value at IKZF2 was “B (80%< substrate protein remaining % ≤100%)”. In addition, the “IKZF3 substrate protein remaining %” value on IKZF3 is “B (80%< substrate protein remaining % ≤100%)”. Further, the “CK1α substrate protein remaining %” value on CK1α was “A (0% ≤ substrate protein remaining % ≤80%)”. Further, the “GSPT1 substrate protein remaining %” value at GSPT1 is recorded as “A (0% ≤ substrate protein remaining % ≤80%)”.
As for `Cc1ccsc1C1CCN(Cc2ccc3c(c2)CN(N2CCC(=O)NC2=O)C3=O)CC1` [GT-07305, 1-(5-((4-(3-methylthiophen-2-yl)piperidin-1-yl)methyl)-1-oxoisoindolin-2-yl)dihydropyrimidine-2,4(1H,3H)-dione], on WEE1, the “WEE1 substrate protein remaining %” value is “B (80%< substrate protein remaining % ≤100%)”. For the same compound, the “IKZF1 substrate protein remaining %” value on IKZF1 is “B (80%< substrate protein remaining % ≤100%)”. In addition, the “IKZF2 substrate protein remaining %” value at IKZF2 is listed as “A (0% ≤ substrate protein remaining % ≤80%)”. Also, the “IKZF3 substrate protein remaining %” value at IKZF3 is recorded as “A (0% ≤ substrate protein remaining % ≤80%)”. The “CK1α substrate protein remaining %” value at CK1α is on record as “B (80%< substrate protein remaining % ≤100%)”. Moreover, the “GSPT1 substrate protein remaining %” value on GSPT1 is given as “A (0% ≤ substrate protein remaining % ≤80%)”.
Regarding `Cc1ccsc1C1CCN(Cc2ccc3c(c2)C(=O)N(N2CCC(=O)NC2=O)C3=O)CC1` [GT-07306, 2-(2,4-dioxotetrahydropyrimidin-1(2H)-yl)-5-((4-(3-methylthiophen-2-yl)piperidin-1-yl)methyl)isoindoline-1,3-dione], the “WEE1 substrate protein remaining %” value at WEE1 is “B (80%< substrate protein remaining % ≤100%)”. At IKZF1, the “IKZF1 substrate protein remaining %” value is “B (80%< substrate protein remaining % ≤100%)”. In addition, the “IKZF2 substrate protein remaining %” value at IKZF2 is listed as “B (80%< substrate protein remaining % ≤100%)”. For the same compound, the “IKZF3 substrate protein remaining %” value on IKZF3 is “A (0% ≤ substrate protein remaining % ≤80%)”. In addition, the “CK1α substrate protein remaining %” value at CK1α is recorded as “B (80%< substrate protein remaining % ≤100%)”. Moreover, the “GSPT1 substrate protein remaining %” value on GSPT1 is “A (0% ≤ substrate protein remaining % ≤80%)”.
For `CC1(C)CCC(CN2CC3CC2CN3Cc2ccc3c(c2)CN(N2CCC(=O)NC2=O)C3=O)=C(c2ccc(Cl)cc2)C1` (stereo not drawn) [GT-07329, 1-(5-((5-((4′-chloro-5,5-dimethyl-3,4,5,6-tetrahydro-[1,1′-biphenyl]-2-yl)methyl)-2,5-diazabicyclo[2.2.1]heptan-2-yl)methyl)-1-oxoisoindolin-2-yl)dihydropyrimidine-2,4(1H,3H)-dione], the “WEE1 substrate protein remaining %” value on WEE1 was “A (0% ≤ substrate protein remaining % ≤80%)”. Moreover, the “IKZF1 substrate protein remaining %” value at IKZF1 is given as “B (80%< substrate protein remaining % ≤100%)”. Also, the “IKZF2 substrate protein remaining %” value on IKZF2 is listed as “B (80%< substrate protein remaining % ≤100%)”. Besides, the “IKZF3 substrate protein remaining %” value at IKZF3 was “B (80%< substrate protein remaining % ≤100%)”. For the same compound, the “CK1α substrate protein remaining %” value at CK1α is on record as “B (80%< substrate protein remaining % ≤100%)”. Also, the “GSPT1 substrate protein remaining %” value on GSPT1 was “A (0% ≤ substrate protein remaining % ≤80%)”.
As to `CC1(C)CCC(CN2CC3CCC(C2)N3Cc2ccc3c(c2)CN(N2CCC(=O)NC2=O)C3=O)=C(c2ccc(Cl)cc2)C1` [GT-07330, 1-(5-((3-((4′-chloro-5,5-dimethyl-3,4,5,6-tetrahydro-[1,1′-biphenyl]-2-yl)methyl)-3,8-diazabicyclo[3.2.1]octan-8-yl)methyl)-1-oxoisoindolin-2-yl)dihydropyrimidine-2,4(1H,3H)-dione], the “WEE1 substrate protein remaining %” value at WEE1 was “A (0% ≤ substrate protein remaining % ≤80%)”. For the same compound, the “IKZF1 substrate protein remaining %” value at IKZF1 is “A (0% ≤ substrate protein remaining % ≤80%)”. Besides, the “IKZF2 substrate protein remaining %” value at IKZF2 is recorded as “A (0% ≤ substrate protein remaining % ≤80%)”. The “IKZF3 substrate protein remaining %” value at IKZF3 is “A (0% ≤ substrate protein remaining % ≤80%)”. The “CK1α substrate protein remaining %” value on CK1α is “B (80%< substrate protein remaining % ≤100%)”. Also, the “GSPT1 substrate protein remaining %” value on GSPT1 is reported as “A (0% ≤ substrate protein remaining % ≤80%)”.
On to `CC1(C)CCC(CN2CC3CCC2CN3Cc2ccc3c(c2)CN(N2CCC(=O)NC2=O)C3=O)=C(c2ccc(Cl)cc2)C1` (stereo not drawn) [GT-07331, 1-(5-((5-((4′-chloro-5,5-dimethyl-3,4,5,6-tetrahydro-[1,1′-biphenyl]-2-yl)methyl)-2,5-diazabicyclo[2.2.2]octan-2-yl)methyl)-1-oxoisoindolin-2-yl)dihydropyrimidine-2,4(1H,3H)-dione], for which the “WEE1 substrate protein remaining %” value at WEE1 is “A (0% ≤ substrate protein remaining % ≤80%)”. In addition, at IKZF1, the “IKZF1 substrate protein remaining %” value is on record as “A (0% ≤ substrate protein remaining % ≤80%)”. In addition, the “IKZF2 substrate protein remaining %” value on IKZF2 is “B (80%< substrate protein remaining % ≤100%)”. On IKZF3, the “IKZF3 substrate protein remaining %” value is “A (0% ≤ substrate protein remaining % ≤80%)”. The “CK1α substrate protein remaining %” value on CK1α was “A (0% ≤ substrate protein remaining % ≤80%)”. On GSPT1, the “GSPT1 substrate protein remaining %” value is on record as “A (0% ≤ substrate protein remaining % ≤80%)”.
For the compound `CC1(C)CC(c2ccc(Cl)cc2)=C(CN2CCN(Cc3ccc4c(c3)CN(N3CCC(=O)NC3=O)C4=O)CC2)CO1` [GT-07332, 1-(5-((4-((4-(4-chlorophenyl)-6,6-dimethyl-5,6-dihydro-2H-pyran-3-yl)methyl)piperazin-1-yl)methyl)-1-oxoisoindolin-2-yl)dihydropyrimidine-2,4(1H,3H)-dione], the “WEE1 substrate protein remaining %” value at WEE1 is “A (0% ≤ substrate protein remaining % ≤80%)”. Also, on IKZF1, the “IKZF1 substrate protein remaining %” value is “A (0% ≤ substrate protein remaining % ≤80%)”. Further, the “IKZF2 substrate protein remaining %” value on IKZF2 was “B (80%< substrate protein remaining % ≤100%)”. For the same compound, the “IKZF3 substrate protein remaining %” value at IKZF3 is given as “A (0% ≤ substrate protein remaining % ≤80%)”. For the same compound, at CK1α, the “CK1α substrate protein remaining %” value is reported as “B (80%< substrate protein remaining % ≤100%)”. Also, the “GSPT1 substrate protein remaining %” value at GSPT1 is on record as “A (0% ≤ substrate protein remaining % ≤80%)”.
As for `CC1(C)CCC(CN2CC3CCC(C2)N3Cc2ccc3c(c2)C(=O)N(N2CCC(=O)NC2=O)C3=O)=C(c2ccc(Cl)cc2)C1` [GT-07333, 5-((3-((4′-chloro-5,5-dimethyl-3,4,5,6-tetrahydro-[1,1′-biphenyl]-2-yl)methyl)-3,8-diazabicyclo[3.2.1]octan-8-yl)methyl)-2-(2,4-dioxotetrahydropyrimidin-1(2H)-yl)isoindoline-1,3-dione], the “WEE1 substrate protein remaining %” value at WEE1 was “B (80%< substrate protein remaining % ≤100%)”. For the same compound, on IKZF1, the “IKZF1 substrate protein remaining %” value was “B (80%< substrate protein remaining % ≤100%)”. Also, the “IKZF2 substrate protein remaining %” value on IKZF2 is “B (80%< substrate protein remaining % ≤100%)”. Besides, on IKZF3, the “IKZF3 substrate protein remaining %” value is listed as “B (80%< substrate protein remaining % ≤100%)”. The “CK1α substrate protein remaining %” value at CK1α was “B (80%< substrate protein remaining % ≤100%)”. On GSPT1, the “GSPT1 substrate protein remaining %” value is listed as “A (0% ≤ substrate protein remaining % ≤80%)”.
